Source: patent US20140135310A1, “SULPHONAMIDE DERIVATIVES OF ALICYCLIC AMINES FOR THE TREATMENT OF CENTRAL NERVOUS SYSTEM DISEASES” (Adamed Sp. z o.o., priority 2011, published 2014)

Legend:
[1] = target: dopaminergic receptors D2 (Homo sapiens, UniProt P14416); assay: Radioligand binding assay, dopaminergic D2 receptors; settings: binding assay, test compound 1×10^−6 M
In short: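 Displacement of radioligand from human dopamine D2, D3 or D4.4 receptors, counted by scintillation; specific binding is total minus binding under excess unlabelled ligand. IC50 values come from Hill curve fits of percent inhibition, then converted to Ki by Cheng-Prusoff using Scatchard-derived KD.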

[2] = target: dopaminergic receptors D3 (Homo sapiens, UniProt P35462); assay: Radioligand binding assay, dopaminergic D3 receptors; settings: test compound 1×10^−6 M
dopaminergic receptors D3, sequence (P35462 whole entry): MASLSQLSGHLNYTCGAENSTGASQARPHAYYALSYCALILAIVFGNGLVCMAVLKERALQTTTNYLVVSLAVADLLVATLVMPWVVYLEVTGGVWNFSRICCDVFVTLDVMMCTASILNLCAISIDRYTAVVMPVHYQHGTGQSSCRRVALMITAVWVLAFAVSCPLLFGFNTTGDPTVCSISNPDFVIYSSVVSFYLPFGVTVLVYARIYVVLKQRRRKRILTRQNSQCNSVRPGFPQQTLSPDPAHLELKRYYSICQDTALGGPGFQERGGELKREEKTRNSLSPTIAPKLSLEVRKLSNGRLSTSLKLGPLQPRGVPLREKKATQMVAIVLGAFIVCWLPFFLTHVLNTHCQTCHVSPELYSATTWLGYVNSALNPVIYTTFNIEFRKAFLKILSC
In short: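 Scintillation read-out. Specific = total − nonspecific (excess cold ligand). Data as % of control specific binding / % inhibition; IC50 by Hill fit; Ki = IC50/(1+L/KD), KD from Scatchard plot.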

[3] = target: T1, 5-HT1A receptor (rat hippocampus) (Rattus norvegicus, UniProt P19327); assay: Radioligand binding assay, serotoninergic 5-HT1A receptors; settings: binding assay result in %, Table 5a;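 also: test compound at 1 µM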
T1 construct: hippocampus; from tissue; host or cells: rat hippocampus
T1 sequence (P19327 1-422): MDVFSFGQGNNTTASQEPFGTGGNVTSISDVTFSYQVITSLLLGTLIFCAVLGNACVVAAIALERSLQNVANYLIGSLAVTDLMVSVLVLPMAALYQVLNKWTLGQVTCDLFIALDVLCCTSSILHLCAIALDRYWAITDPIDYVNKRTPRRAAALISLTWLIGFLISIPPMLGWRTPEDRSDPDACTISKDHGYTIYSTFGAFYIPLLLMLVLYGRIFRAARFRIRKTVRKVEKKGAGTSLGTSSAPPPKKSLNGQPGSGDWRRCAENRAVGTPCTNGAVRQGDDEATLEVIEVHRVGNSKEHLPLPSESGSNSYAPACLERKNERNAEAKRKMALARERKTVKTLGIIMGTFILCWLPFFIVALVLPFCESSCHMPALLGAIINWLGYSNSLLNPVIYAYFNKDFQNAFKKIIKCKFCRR

5-HT2A receptor = target: T2, 5-HT2A receptor (Homo sapiens, UniProt P28223); assay: Radioligand binding assay, serotoninergic 5-HT2A receptors; settings: binding assay result in %, Table 5a
T2 construct: purchased PerkinElmer
T2 sequence (P28223 whole entry): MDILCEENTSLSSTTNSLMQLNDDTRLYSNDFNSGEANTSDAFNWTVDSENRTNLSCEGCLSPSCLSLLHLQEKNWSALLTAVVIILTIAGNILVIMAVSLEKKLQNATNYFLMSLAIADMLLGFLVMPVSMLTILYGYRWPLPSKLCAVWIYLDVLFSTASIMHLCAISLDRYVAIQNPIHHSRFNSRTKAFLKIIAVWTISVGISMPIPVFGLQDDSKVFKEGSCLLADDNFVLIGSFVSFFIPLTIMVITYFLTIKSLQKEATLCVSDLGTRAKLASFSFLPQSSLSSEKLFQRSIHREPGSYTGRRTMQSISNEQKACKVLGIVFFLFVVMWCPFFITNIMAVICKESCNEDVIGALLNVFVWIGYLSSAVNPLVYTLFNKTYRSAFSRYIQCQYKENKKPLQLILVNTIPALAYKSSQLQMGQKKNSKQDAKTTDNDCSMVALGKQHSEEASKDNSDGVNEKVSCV
In short: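 Competition curves from scintillation-counted specific binding (total minus binding with excess unlabelled ligand) were Hill-fitted to give IC50, converted to Ki via Cheng-Prusoff using Scatchard-derived Kd.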

5-HT6 receptor = target: T3, 5-HT6 receptor (Homo sapiens, UniProt P50406); assay: Radioligand binding assay, serotoninergic 5-HT6 receptors; settings: binding assay result in %, Table 5a;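 also: test compound at 1 µM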
T3 construct: purchased PerkinElmer
T3 sequence (P50406 whole entry): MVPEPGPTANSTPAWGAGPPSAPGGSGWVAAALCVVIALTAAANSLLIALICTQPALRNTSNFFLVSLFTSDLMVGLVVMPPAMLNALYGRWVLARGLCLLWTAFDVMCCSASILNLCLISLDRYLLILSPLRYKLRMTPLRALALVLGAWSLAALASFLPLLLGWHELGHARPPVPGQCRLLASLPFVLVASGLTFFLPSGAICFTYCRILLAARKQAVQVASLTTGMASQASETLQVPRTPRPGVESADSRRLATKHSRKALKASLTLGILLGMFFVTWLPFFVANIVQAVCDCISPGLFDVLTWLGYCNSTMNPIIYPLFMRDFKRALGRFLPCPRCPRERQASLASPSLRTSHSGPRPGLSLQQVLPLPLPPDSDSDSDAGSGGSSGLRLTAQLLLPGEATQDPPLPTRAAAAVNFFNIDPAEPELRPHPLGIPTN
In short: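 Values are Ki from Cheng–Prusoff, taking IC50 from Hill nonlinear regression of competition curves and KD from a Scatchard plot. Specific binding was total minus binding with excess unlabelled ligand. Radioligand displacement was detected by scintillation counting, and data were also reported as percent of control specific binding.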

5-HT7 receptor = target: T4, 5-HT7 receptor (Homo sapiens, UniProt P34969); assay: Radioligand binding assay, serotoninergic 5-HT7 receptors; settings: binding assay result in %, Table 5a;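 also: test compound at 1 µM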
T4 construct: purchased PerkinElmer
T4 sequence (P34969 whole entry): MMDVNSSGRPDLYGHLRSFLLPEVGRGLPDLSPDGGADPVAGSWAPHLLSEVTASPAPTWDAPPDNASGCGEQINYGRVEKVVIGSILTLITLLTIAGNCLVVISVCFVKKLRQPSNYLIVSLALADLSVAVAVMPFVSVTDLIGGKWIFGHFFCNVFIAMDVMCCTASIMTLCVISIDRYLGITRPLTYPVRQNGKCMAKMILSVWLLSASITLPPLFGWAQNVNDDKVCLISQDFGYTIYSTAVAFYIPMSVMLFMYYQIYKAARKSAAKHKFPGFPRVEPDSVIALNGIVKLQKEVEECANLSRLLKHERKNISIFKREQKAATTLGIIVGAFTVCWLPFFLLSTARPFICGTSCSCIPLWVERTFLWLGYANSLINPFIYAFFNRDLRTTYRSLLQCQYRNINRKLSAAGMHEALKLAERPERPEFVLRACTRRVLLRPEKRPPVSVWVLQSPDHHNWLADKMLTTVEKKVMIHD
In short: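 Ki values used the Cheng–Prusoff equation, with KD from Scatchard analysis, applied to IC50 from Hill fits of human 5-HT7 radioligand competition curves. Bound radioligand was counted by scintillation, and excess unlabelled ligand set the non-specific binding.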

[4] = tested on: α1 adrenergic receptors (rat cerebral cortex); assay: Radioligand binding assay, adrenergic α1 receptors; settings: test compound 1×10^−6 M
In short: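 Values derive from radioligand displacement, with non-specific binding defined by excess cold ligand and detection by scintillation. Hill-fit IC50s were converted to Ki via Cheng-Prusoff using Scatchard-derived Kd; percent inhibition of control specific binding also reported.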

[5] = target: T5, serotonin transporter (SERT) (Homo sapiens, UniProt P31645); assay: Radioligand binding assay, serotonin transporter (SERT); settings: binding assay, test compound 1×10^−6 M
T5 construct: expressed in transfected cells; host or cells: CHO cells
T5 sequence (P31645 whole entry): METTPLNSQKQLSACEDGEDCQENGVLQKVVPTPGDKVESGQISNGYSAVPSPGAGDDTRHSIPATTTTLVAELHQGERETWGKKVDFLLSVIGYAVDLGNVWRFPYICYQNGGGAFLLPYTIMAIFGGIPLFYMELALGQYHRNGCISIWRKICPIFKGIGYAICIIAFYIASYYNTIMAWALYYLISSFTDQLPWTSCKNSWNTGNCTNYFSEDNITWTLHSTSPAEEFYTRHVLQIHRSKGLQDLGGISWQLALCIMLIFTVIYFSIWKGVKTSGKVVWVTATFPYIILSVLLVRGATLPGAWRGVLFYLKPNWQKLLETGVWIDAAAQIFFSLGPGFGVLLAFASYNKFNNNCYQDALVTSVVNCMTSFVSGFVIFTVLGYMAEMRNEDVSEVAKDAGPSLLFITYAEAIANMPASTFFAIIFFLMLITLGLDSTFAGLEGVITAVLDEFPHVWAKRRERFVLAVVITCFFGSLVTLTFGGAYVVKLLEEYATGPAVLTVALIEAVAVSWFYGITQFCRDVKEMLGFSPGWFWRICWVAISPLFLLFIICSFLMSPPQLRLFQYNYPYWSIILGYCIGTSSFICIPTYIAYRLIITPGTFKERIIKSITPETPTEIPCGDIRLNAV
In short: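 Values are derived from competition curves fitted by the Hill equation to give IC50, then converted to Ki by Cheng-Prusoff with radioligand Kd from Scatchard analysis. Specific binding equals total minus non-specific (excess cold ligand), counted by scintillation, and is also expressed as percent inhibition of control.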

dopaminergic receptors D2, sequence (P14416 whole entry): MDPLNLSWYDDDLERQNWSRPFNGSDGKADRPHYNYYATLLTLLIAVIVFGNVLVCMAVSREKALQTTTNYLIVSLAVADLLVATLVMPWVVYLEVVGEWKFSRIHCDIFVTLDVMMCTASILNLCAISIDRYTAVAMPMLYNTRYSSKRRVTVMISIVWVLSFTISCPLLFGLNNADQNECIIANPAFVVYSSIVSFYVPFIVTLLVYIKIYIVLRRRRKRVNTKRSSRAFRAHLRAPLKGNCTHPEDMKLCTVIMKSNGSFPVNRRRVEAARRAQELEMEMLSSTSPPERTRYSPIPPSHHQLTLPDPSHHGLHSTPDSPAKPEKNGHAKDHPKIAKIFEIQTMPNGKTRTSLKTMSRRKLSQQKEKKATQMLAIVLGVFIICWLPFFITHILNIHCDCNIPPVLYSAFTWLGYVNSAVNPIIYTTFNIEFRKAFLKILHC

Row | D2 [%] [1] | D3 [%] [2] | 5-HT1A [%] [3] | 5-HT2A [%] (5-HT2A receptor) | 5-HT6 [%] (5-HT6 receptor) | 5-HT7 [%] (5-HT7 receptor) | SERT [%] [5] | Compound | inhibition at 1 µM [1] | inhibition at 1 µM [2] | inhibition at 1 µM [3] | inhibition at 1 µM (5-HT2A receptor) | inhibition at 1 µM (5-HT6 receptor) | inhibition at 1 µM (5-HT7 receptor) | α1 [%] [4] | inhibition at 1 µM [5]
1 | – | – | – | – | – | – | – | CC1(C)Cc2cccc(OCCN3CCC(CNS(=O)(=O)c4ccc5ccccc5c4)C3)c2O1 (stereo not drawn) [Compound 114, N-[[1-[2-[(2,2-Dimethyl-3H-benzofuran-7-yl)oxy]ethyl]pyrrolidin-3-yl]methyl]naphthalene-2-sulphonamide] | 49% | 62% | 98% | 90% | 56% | 97% | 27% | 5%
2 | −5% | −2% | 96% | 34% | 13% | 84% | −13% | O=S(=O)(NC1CN(CCOc2cccc3c2OCCO3)C1)c1ccccc1 [Compound 88, N-[1-[2-(2,3-Dihydro-1,4-benzodioxan-8-yloxy)ethyl]azetidin-3-yl]-benzenesulphonamide] | – | – | – | – | – | – | −23% | –
3 | – | – | – | – | – | – | – | O=S(=O)(NCC1CCN(CCOc2cccc3c2OCCO3)C1)c1cccs1 (stereo not drawn) [Compound 302, N-[[1-[2-(2,3-Dihydro-1,4-benzodioxin-5-yloxy)ethyl]pyrrolidin-3-yl]-methyl]thiophene-2-sulphonamide] | 34% | 37% | 89% | 52% | 35% | 105% | 63% | 37%
4 | – | – | – | – | – | – | – | O=S(=O)(NCC1CN(CCOc2cccc3c2OCCO3)C1)c1ccc(Cl)s1 [Compound 192, 5-Chloro-N-[[1-[2-(2,3-dihydro-1,4-benzodioxin-5-yloxy)ethyl]azetidin-3-yl]methyl]thiophene-2-sulphonamide] | 42% | 70% | 79% | 86% | 30% | 97% | 88% | 38%
5 | – | – | – | – | – | – | – | O=S(=O)(NCC1CN(CCOc2cccc3c2OCCO3)C1)c1ccc(I)cc1 [Compound 193, N-[[1-[2-(2,3-Dihydro-1,4-benzodioxin-5-yloxy)ethyl]azetidin-3-yl]methyl]-4-iodo-benzenesulphonamide] | 81% | 55% | 84% | 88% | 9% | 92% | 71% | 41%
6 | – | – | – | – | – | – | – | O=S(=O)(NC1CN(CCOc2cccc3[nH]ccc23)C1)c1ccccc1 [Compound 45, N-[1-[2-(1H-indol-4-yloxy)ethyl]azetidin-3-yl]benzenesulphonamide] | 53% | 87% | 88% | 75% | 0% | 93% | 72% | -4%
7 | 46% | 56% | 92% | 93% | 5% | 98% | 11% | O=S(=O)(NC1CCN(CCOc2cccc3c2OCCO3)C1)c1ccccc1 (stereo not drawn) [Compound 96, N-[1-[2-(2,3-Dihydro-1,4-benzodioxan-8-yloxy)ethyl]pyrrolidin-3-yl]-benzenesulphonamide] | – | – | – | – | – | – | 60% | –
8 | – | – | – | – | – | – | – | O=S(=O)(NCC1CN(CCOc2cccc3c2OCCO3)C1)c1ccc2ccccc2c1 [Compound 177, N-[[1-[2-(2,3-Dihydro-1,4-benzodioxin-5-yloxy)ethyl]azetidin-3-yl]methyl]-naphthalene-2-sulphonamide] | 13% | 42% | 97% | 66% | 44% | 88% | 55% | 25%
9 | – | – | – | – | – | – | – | O=S(=O)(NCC1CCN(CCOc2cccc3ccccc23)C1)c1ccc2cc(Cl)ccc2c1 (stereo not drawn) [Compound 270, 6-Chloro-N-[[1-[2-(1-naphthyloxy)ethyl]pyrrolidin-3-yl]methyl]naphthalene-2-sulphonamide] | 32% | 91% | 47% | 86% | 86% | 94% | −5% | 15%
10 | – | – | – | – | – | – | – | O=S(=O)(NCC1CCN(CCOc2cccc3ccccc23)C1)c1cccc2ccccc12 (stereo not drawn) [Compound 273, N-[[1-[2-(1-Naphthyloxy)ethyl]pyrrolidin-3-yl]methyl]naphthalene-1-sulphonamide] | 58% | 90% | 85% | 95% | 90% | 77% | 25% | 64%
11 | – | – | – | – | – | – | – | O=S(=O)(NCC1CN(CCOc2cccc3c2OCCO3)C1)c1ccc(Cl)cc1 [Compound 179, 4-Chloro-N-[[1-[2-(2,3-dihydro-1,4-benzodioxin-5-yloxy)ethyl]azetidin-3-yl]methyl]benzenesulphonamide] | 6% | 40% | 92% | 57% | -15% | 90% | 61% | -8%
12 | – | – | – | – | – | – | – | O=S(=O)(NCC1CN(CCOc2cccc3c2OCCO3)C1)c1ccc(Br)cc1 [Compound 185, 4-Bromo-N-[[1-[2-(2,3-dihydro-1,4-benzodioxin-5-yloxy)ethyl]azetidin-3-yl]methyl]benzenesulphonamide] | 25% | 0% | 88% | 39% | 23% | 90% | 34% | 23%
13 | – | – | – | – | – | – | – | O=S(=O)(NC1CCN(CCCc2noc3cc(F)ccc23)C1)c1cccc(O)c1 (stereo not drawn) [Compound 18, N-[1-[3-(6-Fluoro-1,2-benzoxazol-3-yl)propyl]pyrrolidin-3-yl]-3-hydroxybenzenesulphonamide] | 73% | 31% | 18% | 85% | 59% | 94% | 98% | 37%
14 | – | – | – | – | – | – | – | O=S(=O)(NC1CCN(CCCc2noc3cc(F)ccc23)C1)c1ccc(F)cc1 (stereo not drawn) [Compound 8, 4-Fluoro-N-[1-[3-(6-fluoro-1,2-benzoxazol-3-yl)propyl]pyrrolidin-3-yl]benzenesulphonamide] | 72% | 18% | 5% | 97% | 64% | 85% | 95% | -13%

Row | Compound | D2 [%] [1] | D3 [%] [2] | 5-HT1A [%] [3] | 5-HT2A [%] (5-HT2A receptor) | 5-HT6 [%] (5-HT6 receptor) | 5-HT7 [%] (5-HT7 receptor) | SERT [%] [5] | inhibition at 1 µM [1] | inhibition at 1 µM [2] | inhibition at 1 µM [3] | inhibition at 1 µM (5-HT2A receptor) | inhibition at 1 µM (5-HT6 receptor) | inhibition at 1 µM (5-HT7 receptor) | α1 [%] [4] | inhibition at 1 µM [5]
15 | N-[1-[3-(6-Fluoro-1,2-benzoxazol-3-yl)propyl]pyrrolidin-3-yl]-1,3-benzothiazole-4-sulphonamide [Compound 31] | 87% | 27% | 58% | 84% | 76% | 89% | 36% | – | – | – | – | – | – | 100% | –
